What all share (type): biochemical
One assay concerns the target FLT3 (Homo sapiens (Human), UniProt P36888). The assay can be described thus: Kinase selectivity assay (CEREP HTRF panel). (In general: TR-FRET usually uses a lanthanide donor and a delayed reading to cut background.)
A further assay concerns the target KDR kinase (VEGFR2) (Homo sapiens (Human), UniProt P35968). The assay can be described thus: Kinase selectivity assay (CEREP HTRF panel).
In the next assay the target is Aurora A (Homo sapiens (Human), UniProt O14965). Nature of the assay: Aurora A inhibition assay (Z-Lyte).
Sequence of Aurora A (O14965 whole entry): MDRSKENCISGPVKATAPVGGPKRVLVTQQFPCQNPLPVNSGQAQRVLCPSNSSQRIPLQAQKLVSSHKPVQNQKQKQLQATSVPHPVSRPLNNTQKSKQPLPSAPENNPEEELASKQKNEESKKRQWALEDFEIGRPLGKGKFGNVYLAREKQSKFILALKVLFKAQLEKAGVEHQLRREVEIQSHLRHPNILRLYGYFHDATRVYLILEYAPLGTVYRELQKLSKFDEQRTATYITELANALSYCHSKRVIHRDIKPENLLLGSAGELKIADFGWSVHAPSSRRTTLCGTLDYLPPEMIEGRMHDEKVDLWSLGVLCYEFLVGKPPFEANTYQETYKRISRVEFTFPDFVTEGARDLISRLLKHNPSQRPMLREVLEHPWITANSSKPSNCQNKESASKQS
For another assay, the target named is human PLK4 (Homo sapiens (Human), UniProt O00444). The assay can be described thus: PLK4 inhibition assay (indirect ELISA). On the technique in general: ELISA stands for enzyme-linked immunosorbent assay.
Sequence of human PLK4 (O00444 1-391): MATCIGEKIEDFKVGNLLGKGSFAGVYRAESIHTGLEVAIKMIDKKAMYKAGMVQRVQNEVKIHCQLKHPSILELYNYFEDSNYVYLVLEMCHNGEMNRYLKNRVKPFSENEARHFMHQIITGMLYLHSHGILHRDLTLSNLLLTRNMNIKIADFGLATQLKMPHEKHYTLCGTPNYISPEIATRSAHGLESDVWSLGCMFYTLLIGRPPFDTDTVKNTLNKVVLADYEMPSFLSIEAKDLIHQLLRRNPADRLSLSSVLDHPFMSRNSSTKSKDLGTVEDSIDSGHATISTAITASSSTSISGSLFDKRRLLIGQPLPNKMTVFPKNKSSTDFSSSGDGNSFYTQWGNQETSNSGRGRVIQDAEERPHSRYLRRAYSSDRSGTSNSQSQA
The next assay has as its target Aurora B (Homo sapiens (Human), UniProt Q96GD4). The assay can be described thus: Aurora B inhibition assay (Z-Lyte). Particulars: read-out: Aurora B IC50 Ranges.

Where two headings read alike, the source gives them in different places. Bounds are passed on as bounds.

Sequence of Aurora B (Q96GD4 whole entry): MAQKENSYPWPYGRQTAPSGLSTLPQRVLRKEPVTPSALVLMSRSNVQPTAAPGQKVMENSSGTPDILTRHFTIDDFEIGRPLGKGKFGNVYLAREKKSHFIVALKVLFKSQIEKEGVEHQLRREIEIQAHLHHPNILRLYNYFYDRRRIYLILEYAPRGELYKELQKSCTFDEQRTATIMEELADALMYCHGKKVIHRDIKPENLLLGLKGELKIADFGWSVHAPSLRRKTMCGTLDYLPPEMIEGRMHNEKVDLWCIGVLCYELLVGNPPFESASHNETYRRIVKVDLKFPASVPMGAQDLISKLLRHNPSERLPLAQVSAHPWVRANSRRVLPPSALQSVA
Sequence of KDR kinase (VEGFR2) (P35968 20-1356): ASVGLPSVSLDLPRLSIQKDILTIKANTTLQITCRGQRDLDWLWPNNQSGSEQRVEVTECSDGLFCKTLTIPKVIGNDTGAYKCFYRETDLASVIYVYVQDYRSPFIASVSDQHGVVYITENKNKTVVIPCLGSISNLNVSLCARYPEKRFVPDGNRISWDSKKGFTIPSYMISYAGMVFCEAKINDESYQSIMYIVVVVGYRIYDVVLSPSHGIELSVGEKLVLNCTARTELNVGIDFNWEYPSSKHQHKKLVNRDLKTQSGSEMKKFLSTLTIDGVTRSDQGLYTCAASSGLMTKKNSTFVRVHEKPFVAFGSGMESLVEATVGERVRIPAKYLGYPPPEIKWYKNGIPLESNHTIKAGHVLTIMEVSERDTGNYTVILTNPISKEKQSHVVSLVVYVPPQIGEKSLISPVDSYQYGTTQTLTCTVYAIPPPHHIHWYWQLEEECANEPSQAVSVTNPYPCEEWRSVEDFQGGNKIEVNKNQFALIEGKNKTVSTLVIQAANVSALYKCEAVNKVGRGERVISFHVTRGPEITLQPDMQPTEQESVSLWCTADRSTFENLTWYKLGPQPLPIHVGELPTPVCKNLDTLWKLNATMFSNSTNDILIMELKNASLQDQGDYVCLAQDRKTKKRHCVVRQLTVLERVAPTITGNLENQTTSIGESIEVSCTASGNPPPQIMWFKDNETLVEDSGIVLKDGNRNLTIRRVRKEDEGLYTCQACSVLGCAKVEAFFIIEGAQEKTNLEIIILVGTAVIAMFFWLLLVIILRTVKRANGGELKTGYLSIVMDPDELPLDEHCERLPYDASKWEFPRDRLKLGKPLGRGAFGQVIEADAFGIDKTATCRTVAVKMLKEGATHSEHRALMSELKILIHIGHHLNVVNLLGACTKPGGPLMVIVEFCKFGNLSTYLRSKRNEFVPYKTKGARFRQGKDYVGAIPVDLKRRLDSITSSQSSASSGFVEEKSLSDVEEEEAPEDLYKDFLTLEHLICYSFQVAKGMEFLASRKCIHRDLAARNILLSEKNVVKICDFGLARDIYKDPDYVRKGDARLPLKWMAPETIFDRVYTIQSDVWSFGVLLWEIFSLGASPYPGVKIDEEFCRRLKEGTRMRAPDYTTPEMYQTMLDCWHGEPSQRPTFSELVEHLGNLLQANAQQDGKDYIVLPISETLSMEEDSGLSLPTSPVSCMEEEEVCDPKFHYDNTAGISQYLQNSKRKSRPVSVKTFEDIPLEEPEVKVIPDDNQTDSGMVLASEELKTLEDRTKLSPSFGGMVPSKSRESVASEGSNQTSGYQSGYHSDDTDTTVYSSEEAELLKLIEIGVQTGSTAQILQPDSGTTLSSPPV
Sequence of FLT3 (P36888 27-993): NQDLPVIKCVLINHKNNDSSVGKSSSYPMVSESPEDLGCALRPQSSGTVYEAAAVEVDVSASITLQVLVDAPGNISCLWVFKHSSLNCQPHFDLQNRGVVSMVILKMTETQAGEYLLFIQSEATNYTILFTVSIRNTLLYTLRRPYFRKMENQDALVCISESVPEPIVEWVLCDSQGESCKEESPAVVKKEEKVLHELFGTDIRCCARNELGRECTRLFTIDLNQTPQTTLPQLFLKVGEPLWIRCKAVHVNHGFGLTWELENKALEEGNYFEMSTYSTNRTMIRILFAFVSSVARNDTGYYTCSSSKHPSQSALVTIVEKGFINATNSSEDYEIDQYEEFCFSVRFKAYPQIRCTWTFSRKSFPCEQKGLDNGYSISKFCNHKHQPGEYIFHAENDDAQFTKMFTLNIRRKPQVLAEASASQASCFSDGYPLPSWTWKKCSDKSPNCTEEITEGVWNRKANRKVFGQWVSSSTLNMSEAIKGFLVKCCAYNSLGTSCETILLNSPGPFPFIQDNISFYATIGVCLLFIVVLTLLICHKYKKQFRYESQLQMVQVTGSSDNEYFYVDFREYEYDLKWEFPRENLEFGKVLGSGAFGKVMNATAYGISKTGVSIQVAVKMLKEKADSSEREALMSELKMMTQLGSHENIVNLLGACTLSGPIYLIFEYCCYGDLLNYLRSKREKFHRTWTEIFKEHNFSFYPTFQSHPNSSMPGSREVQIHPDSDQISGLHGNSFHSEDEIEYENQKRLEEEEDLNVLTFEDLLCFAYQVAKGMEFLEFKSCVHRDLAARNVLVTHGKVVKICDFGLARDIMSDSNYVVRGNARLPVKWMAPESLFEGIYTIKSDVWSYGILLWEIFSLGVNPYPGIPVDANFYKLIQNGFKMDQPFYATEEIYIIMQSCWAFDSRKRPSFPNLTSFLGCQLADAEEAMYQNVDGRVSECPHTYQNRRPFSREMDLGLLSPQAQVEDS
Method for Aurora B: Aurora B inhibition was determined using the Z-Lyte assay kit from Invitrogen. […] The % inhibition values were determined according to the manufacturer's directions and IC50 values were obtained using a non-linear 4 point logistic curve fit (XLfit4, IDBS)
Method for human PLK4: PLK4 activity was measured using an indirect ELISA detection system. […] The colourimetric reaction was allowed to continue for 5 minutes, followed by addition of stop solution (0.5 N sulphuric acid), and quantified by detection at 450 nm with either a monochromatic or filter based plate reader (Molecular Devices M5 or Beckman DTX880, respectively).
Compounds were pre-incubated in the presence of enzyme for 15 minutes prior to addition of ATP and the activity remaining quantified using the above described activity assay. […] The IC50 value was determined using a non-linear 4 point logistic curve fit (XLfit4, IDBS) with the formula; (A+(B/(1+((x/C)^D)))), where A=background value, B=range, C=inflection point, D=curve fit parameter.

In the case of `CN(C)Cc1ccc(/C=C/c2n[nH]c3cc([C@H]4C[C@@]45C(=O)Nc4ccccc45)ccc23)cc1` (relative stereo) [Example A26, (1R*,2R*)-(E)-2-(3-(4-((dimethylamino)methyl)styryl)-1H-indazol-6-yl)spiro[cyclopropane-1,3′-indolin]-2′-one 2,2,2-trifluoroacetate], the inhibition at 10 µM on FLT3 was determined as 102%; on KDR kinase (VEGFR2), 58%.

Take `CN1CCN(c2ccc(-c3n[nH]c4cc([C@@H]5C[C@@]56C(=O)N(C)c5ccccc56)ccc34)cn2)CC1` (relative stereo) [Example A93, (1R*,2S*)-1′-methyl-2-(3-(6-(4-methylpiperazin-1-yl)pyridin-3-yl)-1H-indazol-6-yl)spiro[cyclopropane-1,3′-indolin]-2′-one bis(2,2,2-trifluoroacetate)]: the inhibition at 1 µM at Aurora A is > 50%. The IC50 on human PLK4 (read-out: PLK4 IC50 Ranges) and at Aurora B was < 100 nM in each case.

Take `CCN1CCN(c2ccc(-c3n[nH]c4cc([C@@H]5C[C@@]56C(=O)Nc5ccc(OC)cc56)ccc34)cc2)CC1` (relative stereo) [Example A98, (1R*,2S*)-2-(3-(4-(4-ethylpiperazin-1-yl)phenyl)-1H-indazol-6-yl)-5′-methoxyspiro[cyclopropane-1,3′-indolin]-2′-one 2,2,2-trifluoroacetate]: the inhibition at 1 µM on Aurora A was < 50%. For the same compound, the concentration for half-maximal inhibition (IC50) against human PLK4 and at Aurora B was < 100 nM in each case.

Take `COc1ccc2c(c1)[C@]1(C[C@H]1c1ccc3c(-c4ccc(N5CCN(C)CC5)cc4)n[nH]c3c1)C(=O)N2C` (relative stereo) [Example A100, (1R*,2S*)-5′-methoxy-1′-methyl-2-(3-(4-(4-methylpiperazin-1-yl)phenyl)-1H-indazol-6-yl)spiro[cyclopropane-1,3′-indolin]-2′-one 2,2,2-trifluoroacetate]: the inhibition at 1 µM against Aurora A is < 50%. For the same compound, the IC50 at human PLK4 (read-out: PLK4 IC50 Ranges) and on Aurora B was < 100 nM each time.

Regarding `COc1ccc2c(c1)[C@]1(C[C@H]1c1ccc3c(-c4ccc(OCCN(C)C)cc4)n[nH]c3c1)C(=O)N2` (relative stereo) [Example A103, (1R*,2S*)-2-(3-(4-(2-(dimethylamino)ethoxy)phenyl)-1H-indazol-6-yl)-5′-methoxyspiro[cyclopropane-1,3′-indolin]-2′-one 2,2,2-trifluoroacetate], the inhibition at 1 µM on Aurora A is < 50%. Besides, the IC50 at human PLK4 (read-out: PLK4 IC50 Ranges) and at Aurora B was < 100 nM each time.

Turning to `COc1ccc2c(c1)[C@]1(C[C@H]1c1ccc3c(-c4ccc(N5CCN(C)CC5)nc4)n[nH]c3c1)C(=O)N2C` (relative stereo) [Example A104, (1R*,2S*)-5′-methoxy-1′-methyl-2-(3-(6-(4-methylpiperazin-1-yl)pyridin-3-yl)-1H-indazol-6-yl)spiro[cyclopropane-1,3′-indolin]-2′-one bis(2,2,2-trifluoroacetate)], the inhibition at 1 µM on Aurora A is < 50%. For the same compound, the IC50 on human PLK4 (read-out: PLK4 IC50 Ranges) and at Aurora B was < 100 nM in each case.

On to `Cc1cc(/C=C/c2n[nH]c3cc([C@@H]4C[C@@]45C(=O)Nc4ccccc45)ccc23)ccn1` (relative stereo) [Example A161, (1R*,2S*)-2-(3-((E)-2-(2-methylpyridin-4-yl)vinyl)-1H-indazol-6-yl)spiro[cyclopropane-1,3′-indolin]-2′-one], for which, at Aurora A, the inhibition at 1 µM is > 50%. The IC50 on human PLK4 (read-out: PLK4 IC50 Ranges) and at Aurora B was < 100 nM in each case.

For the compound `COc1ccc2c(c1)[C@]1(C[C@H]1c1ccc3c(/C=C/c4ccc(N5CCNCC5)nc4)n[nH]c3c1)C(=O)N2` (relative stereo) [Example A163, (1R*,2S*)-5′-methoxy-2-(3-((E)-2-(6-(piperazin-1-yl)pyridin-3-yl)vinyl)-1H-indazol-6-yl)spiro[cyclopropane-1,3′-indolin]-2′-one 2,2,2-trifluoroacetate], at Aurora A, the inhibition at 1 µM is > 50%. Moreover, the IC50 at human PLK4 (read-out: PLK4 IC50 Ranges) and at Aurora B was < 100 nM each time.

For `CN(C)Cc1cccc(/C=C/c2n[nH]c3cc([C@@H]4C[C@@]45C(=O)N(CC(N)=O)c4ccccc45)ccc23)c1` (relative stereo) [Example A164, 2-((1R*,2S*)-(E)-2-(3-(3-((dimethylamino)methyl)styryl)-1H-indazol-6-yl)-2′-oxospiro[cyclopropane-1,3′-indoline]-1′-yl)acetamide 2,2,2-trifluoroacetate], the inhibition at 1 µM at Aurora A was > 50%. In addition, the IC50 at human PLK4 (read-out: PLK4 IC50 Ranges) and on Aurora B was < 100 nM throughout.

The term inhibition denotes the change of the read-out against control, counted positive when it falls. A word on the IC50: it is the concentration that inhibits the measured activity by half.

The values are drawn from US10358436B2, “Kinase inhibitors and method of treating cancer” (University Health Network, priority 2010, dated 2019).
